# US20050239656A1, “Pyridine compounds or salts thereof and herbicides containing the same” (priority 2002, published 2005)
# Tests used:
# prickly sida [1] = test: Test Example 2: soil surface treatment, upland pot test; type: in vivo, Sida spinosa L.; details: active ingredient 1000 g/ha, observed 20th to 28th day
# Procedure, shortened: (§1)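 Upland soil in pots of 1/170,000 ha is sown; on day 1 after sowing the formulated compound (wettable powder or emulsifiable concentrate, predetermined a.i. amount, water volume 1,500 L/ha) is applied to the soil surface with a small sprayer. Percent control is judged by eye 20–28 days later.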
# redroot pigweed [2] = test: Test Example 1: foliage treatment, upland pot test; type: in vivo, Amaranthus retroflexus L.; details: active ingredient 1000 g/ha, observed 18th to 23rd day, 0 = non-treated, 100 = complete kill
# green foxtail [3] = test: Test Example 2: soil surface treatment, upland pot test; type: in vivo, Setaria viridis L.; details: active ingredient 1000 g/ha, observed 20th to 28th day
# Procedure, shortened: as §1
# soybean [4] = test: as above; type: in vivo, Glycine max Merr.; details: active ingredient 1000 g/ha, observed 20th to 28th day
# Procedure, shortened: as §1
# velvetleaf [5] = test: as above; type: in vivo, Abutilon theophrasti MEDIC.; details: active ingredient 1000 g/ha, observed 20th to 28th day
# Procedure, shortened: as §1
# rice (var. Nihonbare) = test: Test Example 3: paddy pot test, transplanted rice; type: in vivo, Oryza sativa L.; details: applied 4th day after transplantation, visually observed 21st day after application, 0 = non-treated, 100 = complete kill
# Procedure, shortened: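 Visual crop-injury rating (0 = as untreated, 100 = complete kill, %) taken 21 days post-application. Treatment: formulated compound, water-diluted, pipetted into 3–4 cm flood water at a preset active-ingredient dose, 4 days after transplanting 2-leaf Nihonbare rice 3 cm deep in puddled paddy soil.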
# japanese bulrush = test: Test Example 3: paddy pot test, application under submerged conditions; type: in vivo, Scirpus juncoides; details: submerged application at 0.5 leaf stage, visually observed 14 days after application, 0 = non-treated, 100 = complete kill
# Procedure, shortened: (§2)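 Paddy soil pots; seeds sown, lightly covered; flooded 0.5–1 cm in greenhouse; wapato tubers planted day 1–2; flood raised to 3–4 cm. Submerged pipette application at 0.5 leaf / primary leaf stage. Visual score day 14, 0–100%.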
# corn [6] = test: Test Example 2: soil surface treatment, upland pot test; type: in vivo, Zea mays L.; details: active ingredient 1000 g/ha, observed 20th to 28th day
# Procedure, shortened: as §1
# rice [7] = test: Test Example 1: foliage treatment, upland pot test; type: in vivo, Oryza sativa L.; details: crop, active ingredient 1000 g/ha, observed 18th to 23rd day, 0 = non-treated, 100 = complete kill
# Procedure, shortened: (§3)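 Sow in upland field soil; grow to leaf stage (barnyardgrass 1.3–2.8, soybean 0.1–0.4, wheat 1.3–2.4, rice 1.2–2.6); spray foliage with compound in water, 500 L/ha, spreader 0.1% (v/v); assess visually at 18–23 d, 0 (as untreated) to 100 (full kill).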
# tall morningglory = test: Test Example 1: foliage treatment, upland pot test; type: in vivo, Ipomoea purpurea L.; details: active ingredient 1000 g/ha, observed 18th to 23rd day, 0 = non-treated, 100 = complete kill
# green foxtail [8] = test: Test Example 1: foliage treatment, upland pot test; type: in vivo, Setaria viridis L.; details: active ingredient 1000 g/ha, observed 18th to 23rd day, 0 = non-treated, 100 = complete kill
# soybean [9] = test: Test Example 1: foliage treatment, upland pot test; type: in vivo, Glycine max Merr.; details: crop, active ingredient 1000 g/ha, observed 18th to 23rd day, 0 = non-treated, 100 = complete kill
# Procedure, shortened: as §3
# redroot pigweed [10] = test: Test Example 2: soil surface treatment, upland pot test; type: in vivo, Amaranthus retroflexus L.; details: active ingredient 1000 g/ha, observed 20th to 28th day
# Procedure, shortened: as §1
# barnyardgrass [11] = test: as above; type: in vivo, Echinochloa crus-galli L.; details: active ingredient 1000 g/ha, observed 20th to 28th day, 0 = non-treated, 100 = complete kill
# Procedure, shortened: as §1
# velvetleaf [12] = test: Test Example 1: foliage treatment, upland pot test; type: in vivo, Abutilon theophrasti MEDIC.; details: active ingredient 1000 g/ha, observed 18th to 23rd day, 0 = non-treated, 100 = complete kill
# barnyardgrass [13] = test: Test Example 3: paddy pot test, application under submerged conditions; type: in vivo, Echinochloa crus-galli L.; details: submerged application at 0.5 leaf stage, visually observed 14 days after application, 0 = non-treated, 100 = complete kill
# Procedure, shortened: as §2
# wheat [14] = test: Test Example 2: soil surface treatment, upland pot test; type: in vivo, Triticum spp.; details: active ingredient 1000 g/ha, observed 20th to 28th day
# Procedure, shortened: as §1
# crabgrass [15] = test: Test Example 1: foliage treatment, upland pot test; type: in vivo, Digitaria sanguinalis L.; details: active ingredient 1000 g/ha, observed 18th to 23rd day, 0 = non-treated, 100 = complete kill
# corn [16] = test: Test Example 1: foliage treatment, upland pot test; type: in vivo, Zea mays L.; details: crop, active ingredient 1000 g/ha, observed 18th to 23rd day, 0 = non-treated, 100 = complete kill
# Procedure, shortened: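 Corn seeds were sown in upland field soil held in a 1/170,000 ha pot and grown to the 2.1 to 3.2 leaf stage. A wettable powder or emulsifiable concentrate of the test compound was diluted with water at 500 L/ha, given 0.1% (v/v) agricultural spreader, and sprayed onto the foliage with a small sprayer. Growth controlling degree (%) was scored visually 18th to 23rd days later, from 0 (non-treated) to 100 (complete kill).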
# rice [17] = test: Test Example 2: soil surface treatment, upland pot test; type: in vivo, Oryza sativa L.; details: active ingredient 1000 g/ha, observed 20th to 28th day
# Procedure, shortened: as §1
# crabgrass [18] = test: as above; type: in vivo, Digitaria sanguinalis L.; details: active ingredient 1000 g/ha, observed 20th to 28th day
# Procedure, shortened: as §1
# barnyardgrass [19] = test: Test Example 1: foliage treatment, upland pot test; type: in vivo, Echinochloa crus-galli L.; details: active ingredient 1000 g/ha, observed 18th to 23rd day, 0 = non-treated, 100 = complete kill
# Procedure, shortened: as §3
# japanese ribbon wapato = test: Test Example 3: paddy pot test, application under submerged conditions; type: in vivo, Sagittaria pygniaea; details: submerged application at primary leaf stage, visually observed 14 days after application, 0 = non-treated, 100 = complete kill
# Procedure, shortened: as §2
# wheat [20] = test: Test Example 1: foliage treatment, upland pot test; type: in vivo, Triticum spp.; details: crop, active ingredient 1000 g/ha, observed 18th to 23rd day, 0 = non-treated, 100 = complete kill
# Procedure, shortened: as §3
# prickly sida [21] = test: Test Example 1: foliage treatment, upland pot test; type: in vivo, Sida spinosa L.; details: active ingredient 1000 g/ha, observed 18th to 23rd day, 0 = non-treated, 100 = complete kill
Compound,Growth controlling degree (%) Prickly sida (prickly sida [1]) [%],Growth controlling degree (%) Redroot pigweed (redroot pigweed [2]) [%],Growth controlling degree (%) Green foxtail (green foxtail [3]) [%],Growth controlling degree (%) Soyabean (soybean [4]) [%],Growth controlling degree (%) Velvetleaf (velvetleaf [5]) [%],Growth controlling degree (%) Corn (corn [6]) [%],Growth controlling degree (%) Rice (rice [7]) [%],Growth controlling degree (%) Tall morningglory (tall morningglory) [%],Growth controlling degree (%) Green foxtail (green foxtail [8]) [%],Growth controlling degree (%) Soybean (soybean [9]) [%],Growth controlling degree (%) Redroot pigweed (redroot pigweed [10]) [%],Growth controlling degree (%) Barnyardgrass (barnyardgrass [11]) [%],Growth controlling degree (%) Velvetleaf (velvetleaf [12]) [%],Growth controlling degree (%) wheat (wheat [14]) [%],Growth controlling degree (%) Crabgrass (crabgrass [15]) [%],Growth controlling degree (%) Corn (corn [16]) [%],Growth controlling degree (%) Rice (rice [17]) [%],Growth controlling degree (%) Crabgrass (crabgrass [18]) [%],Growth controlling degree (%) Barnyardgrass (barnyardgrass [19]) [%],Growth controlling degree (%) wheat (wheat [20]) [%],other results
CC(C)C(c1cnccc1C(F)(F)F)N(C)C(=O)Cc1cccc(Br)c1 (stereo not drawn) [I-16],80,80,100,0,60,30,10,80,70,70,95,98,80,30,80,0,30,100,70,40,Growth controlling degree (%) Rice (rice (var. Nihonbare); active ingredient 250 g/ha): 10%; Growth controlling degree (%) Japanese bulrush (japanese bulrush; active ingredient 250 g/ha): 90%; Growth controlling degree (%) Barnyardgrass (barnyardgrass [13]; active ingredient 250 g/ha): 100%; Growth controlling degree (%) Japanese ribbon wapato (japanese ribbon wapato; active ingredient 250 g/ha): 30%; Growth controlling degree (%) Prickly sida (prickly sida [21]): 80%
"CCN(C(=O)Cc1c(F)cccc1F)C(c1cnccc1C(F)(F)F)C(C)C (stereo not drawn) [I-30, N-ethyl-N-[2-methyl-1-(4-trifluoromethylpyridin-3-yl)propyl]2,6-difluorophenylacetamide]",–,–,–,–,–,–,–,–,–,–,–,–,–,–,–,–,–,–,–,–,Growth controlling degree (%) Rice (rice (var. Nihonbare); active ingredient 250 g/ha): 0%; Growth controlling degree (%) Japanese bulrush (japanese bulrush; active ingredient 250 g/ha): 90%; Growth controlling degree (%) Barnyardgrass (barnyardgrass [13]; active ingredient 250 g/ha): 100%; Growth controlling degree (%) Japanese ribbon wapato (japanese ribbon wapato; active ingredient 250 g/ha): 80%; melting point: 121.9 °C
CCC(=O)N(C)C(c1cnccc1C(F)(F)F)c1cccc2ccccc12 (stereo not drawn) [I-43],70,70,98,10,0,30,10,90,70,10,60,90,95,40,90,10,10,100,70,10,Growth controlling degree (%) Rice (rice (var. Nihonbare); active ingredient 500 g/ha): 35%; Growth controlling degree (%) Japanese bulrush (japanese bulrush; active ingredient 500 g/ha): 100%; Growth controlling degree (%) Barnyardgrass (barnyardgrass [13]; active ingredient 500 g/ha): 100%; Growth controlling degree (%) Japanese ribbon wapato (japanese ribbon wapato; active ingredient 500 g/ha): 90%; Growth controlling degree (%) Prickly sida (prickly sida [21]): 80%
CCC(=O)N(CC)C(c1cnccc1C(F)(F)F)c1cccc2ccccc12 (stereo not drawn) [I-44],0,70,100,0,0,10,10,90,70,50,0,80,95,40,80,10,40,90,60,20,Growth controlling degree (%) Rice (rice (var. Nihonbare); active ingredient 500 g/ha): 30%; Growth controlling degree (%) Japanese bulrush (japanese bulrush; active ingredient 500 g/ha): 95%; Growth controlling degree (%) Barnyardgrass (barnyardgrass [13]; active ingredient 500 g/ha): 90%; Growth controlling degree (%) Japanese ribbon wapato (japanese ribbon wapato; active ingredient 500 g/ha): 100%; Growth controlling degree (%) Prickly sida (prickly sida [21]): 80%
COC(=O)N(C)C(c1cnccc1C(F)(F)F)c1cccc2ccccc12 (stereo not drawn) [I-46],60,90,95,0,50,10,30,95,50,95,10,100,95,30,95,40,10,90,80,30,Growth controlling degree (%) Rice (rice (var. Nihonbare); active ingredient 500 g/ha): 10%; Growth controlling degree (%) Japanese bulrush (japanese bulrush; active ingredient 500 g/ha): 100%; Growth controlling degree (%) Barnyardgrass (barnyardgrass [13]; active ingredient 500 g/ha): 100%; Growth controlling degree (%) Japanese ribbon wapato (japanese ribbon wapato; active ingredient 500 g/ha): 90%; Growth controlling degree (%) Prickly sida (prickly sida [21]): 80%
